# ChEMBL document CHEMBL1145498, “A systematic interaction map of validated kinase inhibitors with Ser/Thr kinases” (Proc Natl Acad Sci U S A, 2007)
# Target: Calcium/calmodulin-dependent protein kinase type 1G (Homo sapiens) (UniProt Q96NX5)
# Sequence (Q96NX5 whole entry): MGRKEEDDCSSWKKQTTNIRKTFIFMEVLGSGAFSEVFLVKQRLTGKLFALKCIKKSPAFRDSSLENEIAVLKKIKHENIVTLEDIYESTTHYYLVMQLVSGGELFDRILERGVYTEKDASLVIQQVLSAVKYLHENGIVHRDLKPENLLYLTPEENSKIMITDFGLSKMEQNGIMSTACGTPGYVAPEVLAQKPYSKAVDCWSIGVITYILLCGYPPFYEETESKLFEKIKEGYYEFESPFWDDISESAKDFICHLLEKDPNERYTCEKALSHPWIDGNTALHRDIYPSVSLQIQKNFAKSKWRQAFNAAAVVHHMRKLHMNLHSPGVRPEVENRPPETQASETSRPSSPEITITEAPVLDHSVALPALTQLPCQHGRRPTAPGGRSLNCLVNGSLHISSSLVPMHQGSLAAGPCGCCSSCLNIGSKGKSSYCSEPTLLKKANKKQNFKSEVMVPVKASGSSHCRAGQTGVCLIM
row,Compound,ΔTm [°C]
1,CN(C)c1ncnc2nc[nH]c12 [DIMETHYLADENINE],-0.1
2,COc1ccc(S(=O)(=O)N(CCO)c2ccccc2CN(C)C/C=C/c2ccc(Cl)cc2)cc1,0.3
3,O=C1Nc2ccccc2/C1=C/c1cnc[nH]1,1.2
4,CCOc1ccc(/C=C2/SC(=O)N(CCN)C2=O)cc1 [HIAZOLIDINEDIONE1],0.2
5,O=C1Nc2ccccc2/C1=C\c1ccc[nH]1,1.9
6,O=c1cc(N2CCOCC2)oc2c1ccc1ccccc12,0.1

# Target: Calcium/calmodulin-dependent protein kinase type II subunit alpha (Homo sapiens) (UniProt Q9UQM7)
# Sequence (Q9UQM7 whole entry): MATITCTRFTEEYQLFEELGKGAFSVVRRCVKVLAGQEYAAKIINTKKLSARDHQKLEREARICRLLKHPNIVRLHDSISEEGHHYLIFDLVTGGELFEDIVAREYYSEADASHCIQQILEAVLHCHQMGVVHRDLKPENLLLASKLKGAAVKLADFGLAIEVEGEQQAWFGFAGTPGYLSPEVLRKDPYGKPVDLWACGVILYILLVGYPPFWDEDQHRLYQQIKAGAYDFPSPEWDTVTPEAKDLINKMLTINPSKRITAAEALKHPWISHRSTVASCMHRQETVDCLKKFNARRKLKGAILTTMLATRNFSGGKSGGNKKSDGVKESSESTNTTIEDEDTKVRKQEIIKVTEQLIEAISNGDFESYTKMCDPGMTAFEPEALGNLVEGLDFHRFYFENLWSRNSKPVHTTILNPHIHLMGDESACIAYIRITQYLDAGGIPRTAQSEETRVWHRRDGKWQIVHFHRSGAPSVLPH
row,Compound,ΔTm [°C]
1,CN(C)c1ncnc2nc[nH]c12 [DIMETHYLADENINE],1.7
2,COc1ccc(S(=O)(=O)N(CCO)c2ccccc2CN(C)C/C=C/c2ccc(Cl)cc2)cc1,-0.7
3,O=C1Nc2ccccc2/C1=C/c1cnc[nH]1,0.7
4,CCOc1ccc(/C=C2/SC(=O)N(CCN)C2=O)cc1 [HIAZOLIDINEDIONE1],-0.2
5,O=C1Nc2ccccc2/C1=C\c1ccc[nH]1,1.2
6,O=c1cc(N2CCOCC2)oc2c1ccc1ccccc12,0.3

# Target: Calcium/calmodulin-dependent protein kinase type II subunit beta (Homo sapiens) (UniProt Q13554)
row,Compound,ΔTm [°C]
1,CN(C)c1ncnc2nc[nH]c12 [DIMETHYLADENINE],0
2,COc1ccc(S(=O)(=O)N(CCO)c2ccccc2CN(C)C/C=C/c2ccc(Cl)cc2)cc1,-1.6
3,O=C1Nc2ccccc2/C1=C/c1cnc[nH]1,0.8
4,CCOc1ccc(/C=C2/SC(=O)N(CCN)C2=O)cc1 [HIAZOLIDINEDIONE1],-0.5
5,O=C1Nc2ccccc2/C1=C\c1ccc[nH]1,0.6
6,O=c1cc(N2CCOCC2)oc2c1ccc1ccccc12,0.3

# Target: Calcium/calmodulin-dependent protein kinase type II subunit delta (Homo sapiens) (UniProt Q13557)
row,Compound,ΔTm [°C]
1,CN(C)c1ncnc2nc[nH]c12 [DIMETHYLADENINE],-0.2
2,COc1ccc(S(=O)(=O)N(CCO)c2ccccc2CN(C)C/C=C/c2ccc(Cl)cc2)cc1,-1.2
3,O=C1Nc2ccccc2/C1=C/c1cnc[nH]1,-0.3
4,CCOc1ccc(/C=C2/SC(=O)N(CCN)C2=O)cc1 [HIAZOLIDINEDIONE1],0
5,O=C1Nc2ccccc2/C1=C\c1ccc[nH]1,-0.5
6,O=c1cc(N2CCOCC2)oc2c1ccc1ccccc12,-0.2

# Target: Calcium/calmodulin-dependent protein kinase type II subunit gamma (Homo sapiens) (UniProt Q13555)
# Sequence (Q13555 whole entry): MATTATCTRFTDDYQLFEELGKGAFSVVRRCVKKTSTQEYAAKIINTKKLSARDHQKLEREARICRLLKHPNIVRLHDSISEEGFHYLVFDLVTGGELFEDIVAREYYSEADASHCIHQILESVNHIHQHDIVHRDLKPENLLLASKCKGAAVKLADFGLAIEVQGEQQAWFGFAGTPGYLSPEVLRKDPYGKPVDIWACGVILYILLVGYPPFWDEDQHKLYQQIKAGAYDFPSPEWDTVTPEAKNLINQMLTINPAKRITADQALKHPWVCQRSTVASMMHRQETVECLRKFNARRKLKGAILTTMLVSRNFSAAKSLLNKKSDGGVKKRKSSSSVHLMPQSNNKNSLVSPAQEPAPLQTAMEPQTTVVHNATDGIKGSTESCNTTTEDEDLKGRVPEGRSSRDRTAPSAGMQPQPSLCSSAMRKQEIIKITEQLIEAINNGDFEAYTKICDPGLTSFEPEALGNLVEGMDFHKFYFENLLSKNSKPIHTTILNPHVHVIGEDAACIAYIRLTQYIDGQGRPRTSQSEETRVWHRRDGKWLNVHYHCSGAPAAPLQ
row,Compound,ΔTm [°C]
1,CN(C)c1ncnc2nc[nH]c12 [DIMETHYLADENINE],0
2,COc1ccc(S(=O)(=O)N(CCO)c2ccccc2CN(C)C/C=C/c2ccc(Cl)cc2)cc1,-0.6
3,O=C1Nc2ccccc2/C1=C/c1cnc[nH]1,1.2
4,CCOc1ccc(/C=C2/SC(=O)N(CCN)C2=O)cc1 [HIAZOLIDINEDIONE1],0
5,O=C1Nc2ccccc2/C1=C\c1ccc[nH]1,1.4
6,O=c1cc(N2CCOCC2)oc2c1ccc1ccccc12,0.2

# Target: Dual specificity protein kinase CLK2 (Homo sapiens) (UniProt P49760)
row,Compound,ΔTm [°C]
1,CN(C)c1ncnc2nc[nH]c12 [DIMETHYLADENINE],0.9
2,COc1ccc(S(=O)(=O)N(CCO)c2ccccc2CN(C)C/C=C/c2ccc(Cl)cc2)cc1,-0.3
3,O=C1Nc2ccccc2/C1=C/c1cnc[nH]1,2.5
4,CCOc1ccc(/C=C2/SC(=O)N(CCN)C2=O)cc1 [HIAZOLIDINEDIONE1],0.2
5,O=C1Nc2ccccc2/C1=C\c1ccc[nH]1,2.1
6,O=c1cc(N2CCOCC2)oc2c1ccc1ccccc12,0.8

# Target: Dual specificity protein kinase CLK3 (Homo sapiens) (UniProt P49761)
row,Compound,ΔTm [°C]
1,CN(C)c1ncnc2nc[nH]c12 [DIMETHYLADENINE],0.4
2,COc1ccc(S(=O)(=O)N(CCO)c2ccccc2CN(C)C/C=C/c2ccc(Cl)cc2)cc1,-0.3
3,O=C1Nc2ccccc2/C1=C/c1cnc[nH]1,1
4,CCOc1ccc(/C=C2/SC(=O)N(CCN)C2=O)cc1 [HIAZOLIDINEDIONE1],0.1
5,O=C1Nc2ccccc2/C1=C\c1ccc[nH]1,0.5
6,O=c1cc(N2CCOCC2)oc2c1ccc1ccccc12,0.1

# Target: Casein kinase I isoform gamma-1 (Homo sapiens) (UniProt Q9HCP0)
row,Compound,ΔTm [°C]
1,CN(C)c1ncnc2nc[nH]c12 [DIMETHYLADENINE],-0.1
2,COc1ccc(S(=O)(=O)N(CCO)c2ccccc2CN(C)C/C=C/c2ccc(Cl)cc2)cc1,0.1
3,O=C1Nc2ccccc2/C1=C/c1cnc[nH]1,1.2
4,CCOc1ccc(/C=C2/SC(=O)N(CCN)C2=O)cc1 [HIAZOLIDINEDIONE1],0.3
5,O=C1Nc2ccccc2/C1=C\c1ccc[nH]1,1.4
6,O=c1cc(N2CCOCC2)oc2c1ccc1ccccc12,0.4

# Target: Death-associated protein kinase 3 (Homo sapiens) (UniProt O43293)
# Sequence (O43293 whole entry, looked up): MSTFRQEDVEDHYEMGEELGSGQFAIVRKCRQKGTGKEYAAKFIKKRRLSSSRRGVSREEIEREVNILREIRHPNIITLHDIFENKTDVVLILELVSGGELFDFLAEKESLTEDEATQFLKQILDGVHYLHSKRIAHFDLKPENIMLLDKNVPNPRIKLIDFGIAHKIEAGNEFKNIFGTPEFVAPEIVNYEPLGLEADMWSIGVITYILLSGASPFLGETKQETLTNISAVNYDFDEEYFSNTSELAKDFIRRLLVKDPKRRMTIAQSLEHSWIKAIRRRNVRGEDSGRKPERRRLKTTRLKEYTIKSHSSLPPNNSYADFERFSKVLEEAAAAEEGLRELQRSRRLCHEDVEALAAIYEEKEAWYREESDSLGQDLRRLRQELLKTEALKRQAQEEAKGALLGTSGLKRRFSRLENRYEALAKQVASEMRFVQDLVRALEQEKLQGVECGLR
row,Compound,ΔTm [°C]
1,CN(C)c1ncnc2nc[nH]c12 [DIMETHYLADENINE],0.9
2,COc1ccc(S(=O)(=O)N(CCO)c2ccccc2CN(C)C/C=C/c2ccc(Cl)cc2)cc1,0.2
3,O=C1Nc2ccccc2/C1=C/c1cnc[nH]1,1.6
4,CCOc1ccc(/C=C2/SC(=O)N(CCN)C2=O)cc1 [HIAZOLIDINEDIONE1],0.3
5,O=C1Nc2ccccc2/C1=C\c1ccc[nH]1,-0.2
6,O=c1cc(N2CCOCC2)oc2c1ccc1ccccc12,1.8

# Target: T1, Myotonin-protein kinase (Homo sapiens) (UniProt Q09013)
# T1 sequence (whole entry): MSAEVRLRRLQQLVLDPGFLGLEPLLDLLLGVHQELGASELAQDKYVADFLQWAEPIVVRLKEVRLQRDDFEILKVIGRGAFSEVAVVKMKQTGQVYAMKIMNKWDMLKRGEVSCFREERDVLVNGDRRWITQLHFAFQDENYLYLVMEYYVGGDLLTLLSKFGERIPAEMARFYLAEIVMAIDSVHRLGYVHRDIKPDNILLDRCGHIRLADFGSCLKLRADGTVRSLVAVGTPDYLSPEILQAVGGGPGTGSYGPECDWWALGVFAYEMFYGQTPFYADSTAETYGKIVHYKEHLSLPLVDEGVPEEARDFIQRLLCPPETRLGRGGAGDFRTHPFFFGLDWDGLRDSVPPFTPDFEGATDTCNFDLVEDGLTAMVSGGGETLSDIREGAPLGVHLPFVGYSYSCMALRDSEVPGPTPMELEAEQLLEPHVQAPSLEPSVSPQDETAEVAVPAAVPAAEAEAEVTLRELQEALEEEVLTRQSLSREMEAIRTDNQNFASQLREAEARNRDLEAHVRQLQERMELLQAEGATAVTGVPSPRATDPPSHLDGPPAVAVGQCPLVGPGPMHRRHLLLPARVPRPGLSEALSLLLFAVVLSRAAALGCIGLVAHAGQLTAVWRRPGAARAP
row,Compound,ΔTm [°C]
1,CN(C)c1ncnc2nc[nH]c12 [DIMETHYLADENINE],0.8
2,COc1ccc(S(=O)(=O)N(CCO)c2ccccc2CN(C)C/C=C/c2ccc(Cl)cc2)cc1,-0.7
3,O=C1Nc2ccccc2/C1=C/c1cnc[nH]1,0.8
4,CCOc1ccc(/C=C2/SC(=O)N(CCN)C2=O)cc1 [HIAZOLIDINEDIONE1],1.4
5,O=C1Nc2ccccc2/C1=C\c1ccc[nH]1,-0.6
6,O=c1cc(N2CCOCC2)oc2c1ccc1ccccc12,0.2

# Target: Dual specificity mitogen-activated protein kinase kinase 2 (Homo sapiens, UniProt P36507)
row,Compound,ΔTm [°C]
1,CN(C)c1ncnc2nc[nH]c12 [DIMETHYLADENINE],-0.2
2,COc1ccc(S(=O)(=O)N(CCO)c2ccccc2CN(C)C/C=C/c2ccc(Cl)cc2)cc1,-0.2
3,O=C1Nc2ccccc2/C1=C/c1cnc[nH]1,2
4,CCOc1ccc(/C=C2/SC(=O)N(CCN)C2=O)cc1 [HIAZOLIDINEDIONE1],0.4
5,O=C1Nc2ccccc2/C1=C\c1ccc[nH]1,2.4
6,O=c1cc(N2CCOCC2)oc2c1ccc1ccccc12,0.1

# Target: T2, Dual specificity mitogen-activated protein kinase kinase 6 (Homo sapiens) (UniProt P52564)
# T2 sequence (whole entry): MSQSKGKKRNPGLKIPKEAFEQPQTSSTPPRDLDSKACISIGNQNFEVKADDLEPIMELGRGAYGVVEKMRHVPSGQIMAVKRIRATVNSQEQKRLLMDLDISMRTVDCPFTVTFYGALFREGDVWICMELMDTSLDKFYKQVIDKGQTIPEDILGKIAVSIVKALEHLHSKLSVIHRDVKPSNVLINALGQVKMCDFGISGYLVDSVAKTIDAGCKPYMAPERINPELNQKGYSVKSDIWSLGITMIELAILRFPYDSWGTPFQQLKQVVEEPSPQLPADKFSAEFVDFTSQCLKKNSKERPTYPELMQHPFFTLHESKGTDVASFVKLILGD
row,Compound,ΔTm [°C]
1,CN(C)c1ncnc2nc[nH]c12 [DIMETHYLADENINE],0.2
2,COc1ccc(S(=O)(=O)N(CCO)c2ccccc2CN(C)C/C=C/c2ccc(Cl)cc2)cc1,0.4
3,O=C1Nc2ccccc2/C1=C/c1cnc[nH]1,4.7
4,CCOc1ccc(/C=C2/SC(=O)N(CCN)C2=O)cc1 [HIAZOLIDINEDIONE1],0.1
5,O=C1Nc2ccccc2/C1=C\c1ccc[nH]1,3.4
6,O=c1cc(N2CCOCC2)oc2c1ccc1ccccc12,0

# Target: Mitogen-activated protein kinase 3 (Homo sapiens, UniProt P27361)
# Sequence (P27361 whole entry): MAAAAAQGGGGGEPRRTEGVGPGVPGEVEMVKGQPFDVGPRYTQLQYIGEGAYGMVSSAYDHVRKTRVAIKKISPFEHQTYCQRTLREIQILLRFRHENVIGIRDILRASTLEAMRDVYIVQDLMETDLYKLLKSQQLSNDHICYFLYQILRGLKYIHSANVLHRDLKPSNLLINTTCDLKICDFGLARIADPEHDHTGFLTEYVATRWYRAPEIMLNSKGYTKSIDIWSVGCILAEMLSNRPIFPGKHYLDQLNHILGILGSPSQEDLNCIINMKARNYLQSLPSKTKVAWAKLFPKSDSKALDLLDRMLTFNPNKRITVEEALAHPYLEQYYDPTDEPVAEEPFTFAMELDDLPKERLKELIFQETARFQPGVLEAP
row,Compound,ΔTm [°C]
1,CN(C)c1ncnc2nc[nH]c12 [DIMETHYLADENINE],0.4
2,COc1ccc(S(=O)(=O)N(CCO)c2ccccc2CN(C)C/C=C/c2ccc(Cl)cc2)cc1,0.1
3,O=C1Nc2ccccc2/C1=C/c1cnc[nH]1,2.1
4,CCOc1ccc(/C=C2/SC(=O)N(CCN)C2=O)cc1 [HIAZOLIDINEDIONE1],-0.1
5,O=C1Nc2ccccc2/C1=C\c1ccc[nH]1,0.3
6,O=c1cc(N2CCOCC2)oc2c1ccc1ccccc12,0.2

# Target: Mitogen-activated protein kinase 6 (Homo sapiens) (UniProt Q16659)
row,Compound,ΔTm [°C]
1,CN(C)c1ncnc2nc[nH]c12 [DIMETHYLADENINE],-0.1
2,COc1ccc(S(=O)(=O)N(CCO)c2ccccc2CN(C)C/C=C/c2ccc(Cl)cc2)cc1,-0.5
3,O=C1Nc2ccccc2/C1=C/c1cnc[nH]1,0.5
4,CCOc1ccc(/C=C2/SC(=O)N(CCN)C2=O)cc1 [HIAZOLIDINEDIONE1],0.6
5,O=C1Nc2ccccc2/C1=C\c1ccc[nH]1,-0.1
6,O=c1cc(N2CCOCC2)oc2c1ccc1ccccc12,0.4

# Target: Serine/threonine-protein kinase OSR1 (Homo sapiens) (UniProt O95747)
# Sequence (O95747 2-527 limits assumed): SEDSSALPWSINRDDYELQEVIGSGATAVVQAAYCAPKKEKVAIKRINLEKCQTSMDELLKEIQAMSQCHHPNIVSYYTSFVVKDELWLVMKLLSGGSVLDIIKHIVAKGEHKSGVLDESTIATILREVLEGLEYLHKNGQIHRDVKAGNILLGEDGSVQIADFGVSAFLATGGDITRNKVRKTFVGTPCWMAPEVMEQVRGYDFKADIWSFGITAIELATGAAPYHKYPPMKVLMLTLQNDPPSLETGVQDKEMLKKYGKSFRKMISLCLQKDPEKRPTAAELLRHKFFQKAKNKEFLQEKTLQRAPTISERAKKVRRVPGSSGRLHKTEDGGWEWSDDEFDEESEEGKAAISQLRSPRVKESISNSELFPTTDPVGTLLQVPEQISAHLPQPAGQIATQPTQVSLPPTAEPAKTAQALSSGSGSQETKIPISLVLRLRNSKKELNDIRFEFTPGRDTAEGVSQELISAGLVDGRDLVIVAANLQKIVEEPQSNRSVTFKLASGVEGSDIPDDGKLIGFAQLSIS
row,Compound,ΔTm [°C]
1,CN(C)c1ncnc2nc[nH]c12 [DIMETHYLADENINE],1.1
2,COc1ccc(S(=O)(=O)N(CCO)c2ccccc2CN(C)C/C=C/c2ccc(Cl)cc2)cc1,-0.7
3,O=C1Nc2ccccc2/C1=C/c1cnc[nH]1,2.4
4,CCOc1ccc(/C=C2/SC(=O)N(CCN)C2=O)cc1 [HIAZOLIDINEDIONE1],-0.1
5,O=C1Nc2ccccc2/C1=C\c1ccc[nH]1,2.7
6,O=c1cc(N2CCOCC2)oc2c1ccc1ccccc12,0.5

# Target: Serine/threonine-protein kinase PLK1 (Homo sapiens) (UniProt P53350)
# Sequence (P53350 whole entry): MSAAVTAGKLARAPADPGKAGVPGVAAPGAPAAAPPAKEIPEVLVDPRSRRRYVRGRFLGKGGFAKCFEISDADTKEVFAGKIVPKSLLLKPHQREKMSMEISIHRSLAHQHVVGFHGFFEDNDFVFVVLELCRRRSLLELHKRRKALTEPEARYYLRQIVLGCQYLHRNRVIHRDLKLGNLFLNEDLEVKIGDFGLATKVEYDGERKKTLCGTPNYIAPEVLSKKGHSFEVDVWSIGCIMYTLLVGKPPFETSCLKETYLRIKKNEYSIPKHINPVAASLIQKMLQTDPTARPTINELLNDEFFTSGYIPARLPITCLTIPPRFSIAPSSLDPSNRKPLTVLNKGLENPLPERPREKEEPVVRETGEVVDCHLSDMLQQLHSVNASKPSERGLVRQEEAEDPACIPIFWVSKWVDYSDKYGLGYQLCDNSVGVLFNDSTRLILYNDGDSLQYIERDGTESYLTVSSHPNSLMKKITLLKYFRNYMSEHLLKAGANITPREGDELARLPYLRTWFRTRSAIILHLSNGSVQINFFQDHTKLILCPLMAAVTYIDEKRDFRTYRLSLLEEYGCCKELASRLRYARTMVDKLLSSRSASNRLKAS
row,Compound,ΔTm [°C]
1,CN(C)c1ncnc2nc[nH]c12 [DIMETHYLADENINE],0.5
2,COc1ccc(S(=O)(=O)N(CCO)c2ccccc2CN(C)C/C=C/c2ccc(Cl)cc2)cc1,-0.2
3,O=C1Nc2ccccc2/C1=C/c1cnc[nH]1,1.3
4,CCOc1ccc(/C=C2/SC(=O)N(CCN)C2=O)cc1 [HIAZOLIDINEDIONE1],0.6
5,O=C1Nc2ccccc2/C1=C\c1ccc[nH]1,-0.6
6,O=c1cc(N2CCOCC2)oc2c1ccc1ccccc12,2.3

# Target: TRAF2 and NCK-interacting protein kinase (Homo sapiens) (UniProt Q9UKE5)
# Sequence (Q9UKE5 whole entry, looked up): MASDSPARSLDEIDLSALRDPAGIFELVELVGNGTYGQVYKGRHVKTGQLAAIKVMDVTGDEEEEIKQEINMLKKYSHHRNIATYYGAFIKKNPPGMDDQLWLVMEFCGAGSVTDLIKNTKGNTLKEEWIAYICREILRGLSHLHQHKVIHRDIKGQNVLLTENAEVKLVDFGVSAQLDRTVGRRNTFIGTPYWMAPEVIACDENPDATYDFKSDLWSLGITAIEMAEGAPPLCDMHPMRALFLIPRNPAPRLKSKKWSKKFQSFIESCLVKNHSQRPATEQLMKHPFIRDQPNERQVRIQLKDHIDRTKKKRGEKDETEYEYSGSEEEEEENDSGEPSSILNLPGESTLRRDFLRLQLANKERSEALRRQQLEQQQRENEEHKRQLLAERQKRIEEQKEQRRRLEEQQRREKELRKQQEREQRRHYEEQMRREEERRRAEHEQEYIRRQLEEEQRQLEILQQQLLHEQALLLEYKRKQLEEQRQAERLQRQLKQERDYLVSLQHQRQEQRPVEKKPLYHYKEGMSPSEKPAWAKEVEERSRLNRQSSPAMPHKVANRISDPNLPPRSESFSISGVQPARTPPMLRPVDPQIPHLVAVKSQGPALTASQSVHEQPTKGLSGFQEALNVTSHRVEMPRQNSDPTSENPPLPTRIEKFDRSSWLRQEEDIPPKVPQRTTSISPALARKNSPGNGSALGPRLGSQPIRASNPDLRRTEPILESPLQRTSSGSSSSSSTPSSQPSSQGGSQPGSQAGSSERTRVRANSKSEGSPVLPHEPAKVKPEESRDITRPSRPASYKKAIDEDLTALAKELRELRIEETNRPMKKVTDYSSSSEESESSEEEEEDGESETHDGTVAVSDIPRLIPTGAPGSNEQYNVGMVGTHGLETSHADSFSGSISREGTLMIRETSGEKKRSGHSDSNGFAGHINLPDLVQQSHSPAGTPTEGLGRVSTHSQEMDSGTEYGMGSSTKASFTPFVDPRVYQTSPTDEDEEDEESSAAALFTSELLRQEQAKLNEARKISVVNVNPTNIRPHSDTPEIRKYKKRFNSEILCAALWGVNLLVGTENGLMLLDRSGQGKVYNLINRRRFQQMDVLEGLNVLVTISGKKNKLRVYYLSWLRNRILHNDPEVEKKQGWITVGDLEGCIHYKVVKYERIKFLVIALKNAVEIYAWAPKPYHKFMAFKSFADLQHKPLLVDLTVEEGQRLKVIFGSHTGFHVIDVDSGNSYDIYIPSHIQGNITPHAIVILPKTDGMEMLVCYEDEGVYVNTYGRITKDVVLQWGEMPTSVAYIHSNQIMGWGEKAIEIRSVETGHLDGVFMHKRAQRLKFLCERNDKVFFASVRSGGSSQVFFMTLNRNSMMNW
row,Compound,ΔTm [°C]
1,CN(C)c1ncnc2nc[nH]c12 [DIMETHYLADENINE],0
2,COc1ccc(S(=O)(=O)N(CCO)c2ccccc2CN(C)C/C=C/c2ccc(Cl)cc2)cc1,1.3
3,O=C1Nc2ccccc2/C1=C/c1cnc[nH]1,6.1
4,CCOc1ccc(/C=C2/SC(=O)N(CCN)C2=O)cc1 [HIAZOLIDINEDIONE1],-0.4
5,O=C1Nc2ccccc2/C1=C\c1ccc[nH]1,6.2
6,O=c1cc(N2CCOCC2)oc2c1ccc1ccccc12,0.3

# Target: T3, Serine/threonine-protein kinase VRK1 (Homo sapiens) (UniProt Q99986)
# T3 sequence (whole entry): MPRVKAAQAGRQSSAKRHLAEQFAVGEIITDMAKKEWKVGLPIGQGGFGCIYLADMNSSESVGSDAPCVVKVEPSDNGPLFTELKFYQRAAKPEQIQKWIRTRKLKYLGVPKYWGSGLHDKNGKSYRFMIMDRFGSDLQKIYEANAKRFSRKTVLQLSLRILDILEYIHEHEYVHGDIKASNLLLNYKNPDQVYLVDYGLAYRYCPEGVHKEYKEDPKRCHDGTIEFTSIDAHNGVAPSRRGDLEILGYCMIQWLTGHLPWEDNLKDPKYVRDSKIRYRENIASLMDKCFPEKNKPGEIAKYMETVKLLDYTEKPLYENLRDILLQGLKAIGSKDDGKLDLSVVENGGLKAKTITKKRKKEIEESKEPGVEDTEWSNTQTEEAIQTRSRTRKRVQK
row,Compound,ΔTm [°C]
1,CN(C)c1ncnc2nc[nH]c12 [DIMETHYLADENINE],0
2,COc1ccc(S(=O)(=O)N(CCO)c2ccccc2CN(C)C/C=C/c2ccc(Cl)cc2)cc1,0
3,O=C1Nc2ccccc2/C1=C/c1cnc[nH]1,0.5
4,CCOc1ccc(/C=C2/SC(=O)N(CCN)C2=O)cc1 [HIAZOLIDINEDIONE1],0.3
5,O=C1Nc2ccccc2/C1=C\c1ccc[nH]1,0.3
6,O=c1cc(N2CCOCC2)oc2c1ccc1ccccc12,0
